This note sets out measurements from patent US12000819B2, “Gas concentration prediction method” (DAIKIN INDUSTRIES, LTD., priority 2018, dated 2024).

One series can be described thus: Concentration of gas dissolved in cell culture liquid or pure water after bubbling, measured by gas chromatography. Type of series: physicochemical. Particulars: Table 1; gas bubbled at 20 mL/min for 1 minute in 5 mL cell culture medium, liquid temperature 23° C.; average of three measurements. How it is done:
The gas shown in Table 1 was bubbled at 20 mL/min for 1 minute in 5 mL of a cell culture medium (liquid containing 6.4 g/L of sodium chloride, 4.7 g/L of D-glucose, 3.7 g/L of sodium bicarbonate, L-lysine hydrochloride, 0.84 g/L of L-arginine hydrochloride, 0.58 g/L of L-glutamine, and 0.3 g/L of calcium chloride) or in 5 mL of purified water, at a liquid temperature of 23° C.; and dissolved. Subsequently, the concentration of a gas dissolved in the cell culture liquid or pure water was measured by gas chromatography (Shimadzu Corporation). Each measurement was repeated three times, and the average gas concentration was calculated. The correction coefficient α was then obtained by dividing the average gas concentration in the cell culture liquid by the average gas concentration in the pure water.
At a later date, the same measurements as above were performed, and the correction coefficient was calculated in the same manner.
Regarding `FC(F)Cl` [CHF2Cl], the “Gas concentration, Cell culture liquid” value was 1785 ppm.
Same read-out and setting: to `C=C(F)C(F)(F)F` [CF3—CF═CH2] belongs 262 ppm; to `FCF` [CH2F2], 2972 ppm; to `FCC(F)(F)F` [CH2F—CF3], 529 ppm.

Still in this series, the particulars now being: Table 1; gas bubbled at 20 mL/min for 1 minute in 5 mL purified water, liquid temperature 23° C.; average of three measurements.
For the compound `FC(F)Cl` [CHF2Cl], the “Gas concentration, Pure water” value was determined as 2399 ppm.
The same measure, in the same setting: the value for `C=C(F)C(F)(F)F` [CF3—CF═CH2] was 331 ppm.
Regarding `FCF` [CH2F2], the “Gas concentration, Pure water” value amounted to 4140 ppm.
Same read-out and setting: to `FCC(F)(F)F` [CH2F—CF3] belongs 656 ppm.

The series is the same for the next values; noted with them: Table 1; ratio of average gas concentrations in cell culture liquid and pure water.
With `FC(F)Cl` [CHF2Cl], the “Correction coefficient α” value is 1.34.
In the case of `C=C(F)C(F)(F)F` [CF3—CF═CH2], the “Correction coefficient α” value was found to be 1.26.
On the same count and under the same terms, the value for `FCF` [CH2F2] was 1.39; that for `FCC(F)(F)F` [CH2F—CF3] was 1.24.

The same series, now with this note: Table 2; repeated at a later date; ratio of average gas concentrations in cell culture liquid and pure water.
As to `FC(F)Cl` [CHF2Cl], the “Correction coefficient α” value is 1.33.
On the same count and under the same terms, to `C=C(F)C(F)(F)F` [CF3—CF═CH2] belongs 1.25.
As for `FCF` [CH2F2], the “Correction coefficient α” value turned out to be 1.36.
Same read-out and setting: the value for `FCC(F)(F)F` [CH2F—CF3] was 1.26.

The series is the same for the next values; noted with them: Table 2; same measurements repeated at a later date; cell culture medium, 23° C.
On to `FC(F)Cl` [CHF2Cl], for which the “Gas concentration, Cell culture liquid” value is listed as 1820 ppm.
Same read-out and setting: the value for `C=C(F)C(F)(F)F` [CF3—CF═CH2] was 288 ppm; that for `FCF` [CH2F2] was 2701 ppm.
Same read-out and setting: the value for `FCC(F)(F)F` [CH2F—CF3] was 599 ppm.

Staying with this series, now noted: Table 2; same measurements repeated at a later date; purified water, 23° C.
For `FC(F)Cl` [CHF2Cl], the “Gas concentration, Pure water” value was 2421 ppm.
With `C=C(F)C(F)(F)F` [CF3—CF═CH2], the “Gas concentration, Pure water” value is 360 ppm.
Still for that read-out and setting: to `FCF` [CH2F2] belongs 3673 ppm.
The same measure, in the same setting: to `FCC(F)(F)F` [CH2F—CF3] belongs 755 ppm.
